The target of experiment [1] is Luciferin 4-monooxygenase (Photinus pyralis, UniProt P08659).
Description: GSK_PKIS: Inhibition of Firefly Luciferase (Data from PubChem: AID 652016) [NIH NCATS]
In experiment [2] the target is T1, Coelenterazine h 2-monooxygenase (Renilla reniformis, UniProt P27652).
T1 sequence (P27652 whole entry): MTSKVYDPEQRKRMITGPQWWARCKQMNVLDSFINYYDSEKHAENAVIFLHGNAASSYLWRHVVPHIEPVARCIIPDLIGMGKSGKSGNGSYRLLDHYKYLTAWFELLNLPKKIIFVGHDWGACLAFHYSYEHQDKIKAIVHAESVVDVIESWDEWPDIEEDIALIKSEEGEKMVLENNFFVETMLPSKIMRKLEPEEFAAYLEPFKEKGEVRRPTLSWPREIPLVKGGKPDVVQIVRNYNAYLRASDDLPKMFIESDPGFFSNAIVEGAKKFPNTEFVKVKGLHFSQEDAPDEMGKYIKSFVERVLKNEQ
Description: GSK_PKIS: Inhibition of Sea Pansy Luciferase (Data from PubChem: AID 652015) [NIH NCATS]

The record followed here is ChEMBL document CHEMBL2303647, “Data associated with the publication PLoS ONE, 8(3), e57888, (2013) PMID: 23505445. Compounds: GSK PKIS; Assays: NIH NCATS”.

Sequence of Luciferin 4-monooxygenase (P08659 whole entry): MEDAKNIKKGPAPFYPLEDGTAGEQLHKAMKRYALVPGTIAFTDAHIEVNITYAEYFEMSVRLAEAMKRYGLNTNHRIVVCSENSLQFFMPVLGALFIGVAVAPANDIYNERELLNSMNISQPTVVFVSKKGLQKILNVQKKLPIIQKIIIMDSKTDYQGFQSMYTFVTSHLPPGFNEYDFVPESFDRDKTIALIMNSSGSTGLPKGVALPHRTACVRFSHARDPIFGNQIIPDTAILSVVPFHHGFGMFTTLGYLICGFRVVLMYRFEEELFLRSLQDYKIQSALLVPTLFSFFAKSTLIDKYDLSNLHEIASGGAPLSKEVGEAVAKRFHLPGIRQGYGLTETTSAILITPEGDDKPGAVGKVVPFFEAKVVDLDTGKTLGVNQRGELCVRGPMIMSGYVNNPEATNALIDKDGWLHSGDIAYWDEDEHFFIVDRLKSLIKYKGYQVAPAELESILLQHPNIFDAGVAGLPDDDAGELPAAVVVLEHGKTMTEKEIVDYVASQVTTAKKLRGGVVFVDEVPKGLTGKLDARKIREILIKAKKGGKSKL

Regarding `O=C(NCC1CC1)c1ccc(-c2cccc(C(=O)NC3CC3)c2)cc1` [GW806776X], the concentration at half-maximal activity (AC50) in experiment [1] (read-out: AC50) was determined as 9.19 µM; in experiment [2] (read-out: AC50) it was 7.3 µM.
On to `CC(=O)NCc1cccc(C#Cc2cncnc2Nc2ccc(OCc3cccc(F)c3)c(Cl)c2)c1` [GW807930X], for which the values for the AC50 entry in experiment [1] and in experiment [2] were “Phenotype: Activator; Curve_Description: None” and “Phenotype: Inactive; Curve_Description: None”, respectively.
With `CCOc1ccc2c(-c3ccnc(Nc4cc(OC)cc(C(F)(F)F)c4)n3)cnn2n1` [GW807982X], the results for the AC50 in experiment [1] (read-out: AC50) and in experiment [2] were 14.6 µM and “Phenotype: Activator; Curve_Description: None”, respectively.
Turning to `COc1cccc(-n2nc(C)c3c(N/N=C(\C)c4ccncc4)ncnc32)c1` [GW809885X], the AC50 result in experiment [1] and in experiment [2] was “Phenotype: Inactive; Curve_Description: None” each time.
Consider `CN(c1ccc(NC(=O)Nc2c(Cl)cccc2Cl)cc1)c1ccnc(Nc2cccc(CS(C)(=O)=O)c2)n1` [GW809897X], for which the AC50 in experiment [1] (read-out: AC50) is 0.58 µM; in experiment [2] it was “Phenotype: Inactive; Curve_Description: None”.
For `COc1ccc2c(-c3ccnc(Nc4cccc(OC(F)(F)F)c4)n3)cnn2n1` [GW810372X], the figures for the AC50 entry in experiment [1] and in experiment [2] were “Phenotype: Inactive; Curve_Description: None” and “Phenotype: Activator; Curve_Description: None”, respectively.
`CCOc1ccc2c(-c3ccnc(Nc4cccc(C(F)(F)F)c4)n3)cnn2n1` [GW811761X]: the AC50 result in experiment [1] and in experiment [2] was “Phenotype: Inactive; Curve_Description: None” throughout.
For the molecule `COc1cccc(-n2cnc3c(N/N=C/c4ccncc4)ncnc32)c1` [GW813360X], the AC50 in experiment [1] (read-out: AC50) was 16.3 µM; in experiment [2] it was “Phenotype: Inactive; Curve_Description: None”.
In the same order, the values of `COc1cccc(-c2c[nH]c3c(N/N=C/c4ccncc4)ncnc23)c1` [GW814408X] are 5.8 µM and “Phenotype: Inactive; Curve_Description: None”.
In the same order, the values of `COc1cccc(-n2ncc3c(N/N=C/c4cccc(F)c4)ncnc32)c1` [GW817394X] are 18.3 µM and “Phenotype: Inactive; Curve_Description: None”.
On to `COc1cccc(-n2ncc3c(N/N=C/c4ccc(F)cc4)ncnc32)c1` [GW817396X], for which the AC50 in experiment [1] (read-out: AC50) was 32.6 µM; in experiment [2] (read-out: AC50), 0.0005 µM.
Regarding `FC(F)(F)c1cccc(Nc2nccc(-c3cnn4nc(-c5ccccc5)ccc34)n2)c1` [GW819077X], the AC50 entry in experiment [1] and in experiment [2] was “Phenotype: Inactive; Curve_Description: None” in each case.
Take `Cc1ccc(-c2cc3c(NC(=O)C4CC4)ncnc3o2)cc1` [GW819230X]: the AC50 was 18.3 µM in experiment [1] (read-out: AC50) and “Phenotype: Inactive; Curve_Description: None” in experiment [2].
`Cc1ccc(C(=O)NC2CC2)cc1-c1ccc2[nH]ncc2c1` [GW820759X]: the AC50 was determined as 18.3 µM in experiment [1] (read-out: AC50) and 20.6 µM in experiment [2] (read-out: AC50).
Turning to `Cl.NS(=O)(=O)c1cccc(Nc2cc(-c3ccc(F)cc3)n[nH]2)c1` [GW824645A], the AC50 in experiment [1] (read-out: AC50) is 11.6 µM; in experiment [2], “Phenotype: Inactive; Curve_Description: None”.
In the same order, the values of `Fc1ccc(-c2nn3ncccc3c2-c2ccnc(Nc3ccc4c(c3)OCCO4)n2)cc1` [GW827099X] are 18.3 µM and “Phenotype: Inactive; Curve_Description: None”.
In the same order, the values of `FC(F)(F)c1cccc(-c2nn3ncccc3c2-c2ccnc(Nc3ccc4c(c3)OCCO4)n2)c1` [GW827102X] are 32.6 µM and “Phenotype: Inactive; Curve_Description: None”.
Consider `COc1ccc(-c2nn3ncccc3c2-c2ccnc(Nc3cccc(C(F)(F)F)c3)n2)cc1` [GW827105X], for which the AC50 result in experiment [1] and in experiment [2] was “Phenotype: Inactive; Curve_Description: None” throughout.
Consider `COc1ccc(-c2nn3ncccc3c2-c2ccnc(Nc3ccc4c(c3)OCCO4)n2)cc1` [GW827106X], for which the AC50 entry in experiment [1] and in experiment [2] was “Phenotype: Inactive; Curve_Description: None” throughout.
Turning to `COc1ccc(-c2nn3ncccc3c2-c2ccnc(Nc3ccc(F)c(F)c3)n2)cc1` [GW827396X], the AC50 result in experiment [1] and in experiment [2] was “Phenotype: Inactive; Curve_Description: None” throughout.
Consider `FC(F)(F)c1ccc(-c2nn3ncccc3c2-c2ccnc(Nc3ccc4c(c3)OCCO4)n2)cc1` [GW828525X], for which the concentration at half-maximal activity (AC50) result in experiment [1] and in experiment [2] was “Phenotype: Inactive; Curve_Description: None” in each case.
`Fc1ccc(Nc2nccc(-c3c(-c4ccc(C(F)(F)F)cc4)nn4ncccc34)n2)cc1F` [GW828529X]: the AC50 entry in experiment [1] and in experiment [2] was “Phenotype: Inactive; Curve_Description: None” each time.
For the molecule `Clc1ccc(-c2nn3ncccc3c2-c2ccnc(Nc3ccccc3)n2)cc1` [GW829055X], the AC50 result in experiment [1] and in experiment [2] was “Phenotype: Inactive; Curve_Description: None” in each case.
Take `COc1ccc(-c2nn3ncccc3c2-c2ccnc(Nc3ccc(Cl)c(C(F)(F)F)c3)n2)cc1` [GW829115X]: the AC50 entry in experiment [1] was “Phenotype: Inactive; Curve_Description: None”; in experiment [2], “Phenotype: Activator; Curve_Description: None”.
In the same order, the values of `COc1cccc(/C=N/Nc2ncnc3c2cnn3-c2cccc(OC)c2)c1` [GW829874X] are “Phenotype: Inactive; Curve_Description: None” and “Phenotype: Inactive; Curve_Description: None”.
In the same order, the values of `COc1cccc(-n2ncc3c(N/N=C/c4ccc(C)cc4)ncnc32)c1` [GW829877X] are “Phenotype: Inactive; Curve_Description: None” and “Phenotype: Inactive; Curve_Description: None”.
`Cc1ccc2c(-c3ccnc(Nc4cccc(C(F)(F)F)c4)n3)c(-c3ccccc3)nn2n1` [GW829906X]: the AC50 in experiment [1] (read-out: AC50) is 41.1 µM; in experiment [2], “Phenotype: Inactive; Curve_Description: None”.
In the same order, the values of `CN1CCN(C(=O)c2ccc(NC(=O)Nc3ccc(N(C)c4ccnc(Nc5ccc(CS(C)(=O)=O)cc5)n4)cc3)cc2)CC1.Cl` [GW830263A] are 9.19 µM and “Phenotype: Inactive; Curve_Description: None”.
`CN(c1ccc(NC(=O)NCCN2CCOCC2)cc1)c1ccnc(Nc2ccc(CS(C)(=O)=O)cc2)n1.Cl` [GW830365A]: the values for the AC50 in experiment [1] (read-out: AC50) and in experiment [2] were 20.6 µM and “Phenotype: Inactive; Curve_Description: None”, respectively.
In the same order, the values of `CN(C)CCNC(=O)Nc1ccc(N(C)c2ccnc(Nc3ccc(CS(C)(=O)=O)cc3)n2)cc1.Cl` [GW830900A] are 29.1 µM and “Phenotype: Inactive; Curve_Description: None”.
In the same order, the values of `NS(=O)(=O)c1ccc(Nc2cc(-c3cccc(O)c3)n[nH]2)cc1` [GW831090X] are 20.6 µM and “Phenotype: Inactive; Curve_Description: None”.
Consider `NS(=O)(=O)c1ccc(Nc2cc(-c3ccc(O)c(F)c3)n[nH]2)cc1` [GW831091X], for which the AC50 entry in experiment [1] was “Phenotype: Inactive; Curve_Description: None”; in experiment [2] (read-out: AC50), 36.6 µM.
Turning to `Cc1ccc2c(-c3ccnc(Nc4ccc5c(c4)OCCO5)n3)c(-c3ccc(C(F)(F)F)cc3)nn2n1` [GW832467X], the AC50 entry in experiment [1] and in experiment [2] was “Phenotype: Inactive; Curve_Description: None” throughout.
